Assay results published in patent publication US7446199B2, “Compositions useful as inhibitors of protein kinases” (Vertex Pharmaceuticals Incorporated, priority 2003, dated 2008).

Key:
Format in all cases: biochemical
[1] = target: c-Met (Homo sapiens, UniProt P08581); test: Ki determination for the inhibition of c-Met, coupled enzyme system; conditions: 200 μM ATP, 10 μM polyGluTyr, 80 nM c-Met, 30° C.
Procedure: Compounds were screened for their ability to inhibit c-Met kinase activity using a standard coupled enzyme system (Fox et al., Protein Sci. 1998, 7, 2249). Reactions were carried out in a solution containing 100 mM HEPES (pH 7.5), 10 mM MgCl2, 25 mM NaCl, 300 μM NADH, 1 mM DTT, and 1.5% DMSO. Final substrate concentrations in the assay were 200 μM ATP (Sigma Chemicals, St Louis, Mo.) and 10 μM polyGluTyr (Sigma Chemical Company, St. Louis). Reactions were carried out at 30° C. and 80 nM c-Met. Final concentrations of the components of the coupled enzyme system were 2.5 mM phosphoenolpyruvate, 300 μM NADH, 30 μg/ml pyruvate kinase and 10 μg/ml lactate dehydrogenase.
An assay stock buffer solution was prepared containing all of the reagents listed above with the exception of ATP and a test compound of the present invention. The assay stock buffer solution (175 μl) was incubated in a 96 well plate with 5 μl of the test compound of the present invention at final concentrations spanning 0.006 μM to 12.5 μM at 30° C. for 10 minutes. Typically, a 12-point titration was conducted by preparing serial dilutions (from 10 mM compound stocks) with DMSO of the test compounds of the present invention in daughter plates. The reaction was initiated by the addition of 20 μl of ATP (final concentration 200 μM). Rates of reaction were obtained using a Molecular Devices Spectramax plate reader (Sunnyvale, Calif.) over 10 minutes at 30° C. The Ki values were determined from the rate data as a function of inhibitor concentration.

[2] = target: T1, JAK3 (Homo sapiens, UniProt P52333); test: JAK3 inhibition assay (ELISA, Poly (Glu, Ala, Tyr) coated plates); conditions: 2 mM ATP, 60 minutes at 30° C.
T1 sequence (P52333 1-1124): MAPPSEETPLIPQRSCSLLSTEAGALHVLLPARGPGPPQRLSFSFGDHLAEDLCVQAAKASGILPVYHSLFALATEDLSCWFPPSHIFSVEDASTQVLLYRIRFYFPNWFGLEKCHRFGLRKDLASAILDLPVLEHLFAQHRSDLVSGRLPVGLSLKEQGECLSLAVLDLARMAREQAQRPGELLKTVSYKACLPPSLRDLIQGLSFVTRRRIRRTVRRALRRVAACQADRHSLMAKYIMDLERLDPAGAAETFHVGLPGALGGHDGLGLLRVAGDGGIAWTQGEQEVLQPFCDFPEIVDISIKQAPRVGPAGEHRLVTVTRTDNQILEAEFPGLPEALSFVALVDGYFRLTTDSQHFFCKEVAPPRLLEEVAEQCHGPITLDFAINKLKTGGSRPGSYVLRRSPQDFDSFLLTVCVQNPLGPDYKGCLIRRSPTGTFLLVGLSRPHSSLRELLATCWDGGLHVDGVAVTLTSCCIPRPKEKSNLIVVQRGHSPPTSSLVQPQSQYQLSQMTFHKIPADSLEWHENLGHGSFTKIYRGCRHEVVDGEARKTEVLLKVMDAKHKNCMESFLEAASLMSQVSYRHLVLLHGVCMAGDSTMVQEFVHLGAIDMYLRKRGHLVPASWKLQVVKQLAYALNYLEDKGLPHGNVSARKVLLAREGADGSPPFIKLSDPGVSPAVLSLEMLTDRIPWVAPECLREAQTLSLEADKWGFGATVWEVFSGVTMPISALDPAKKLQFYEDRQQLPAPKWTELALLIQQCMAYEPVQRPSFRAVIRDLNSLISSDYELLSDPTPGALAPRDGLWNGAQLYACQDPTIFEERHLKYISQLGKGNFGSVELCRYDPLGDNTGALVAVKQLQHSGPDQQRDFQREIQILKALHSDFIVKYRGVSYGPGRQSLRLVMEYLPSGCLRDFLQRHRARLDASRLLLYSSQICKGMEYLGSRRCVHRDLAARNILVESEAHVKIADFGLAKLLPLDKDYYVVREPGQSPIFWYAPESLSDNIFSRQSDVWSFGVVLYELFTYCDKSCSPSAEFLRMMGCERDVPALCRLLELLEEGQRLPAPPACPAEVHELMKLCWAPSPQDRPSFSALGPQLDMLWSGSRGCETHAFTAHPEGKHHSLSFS
Procedure: Compound inhibition of JAK3 was assayed by the method described by G. R. Brown, et al., Bioorg. Med. Chem. Lett. 2000, vol. 10, pp 575-579 in the following manner. Into Maxisorb plates, previously coated at 4° C. with Poly (Glu, Ala, Tyr) 6:3:1 then washed with phosphate buffered saline 0.05% and Tween (PBST), was added 2 mM ATP, 5 mM MgCl2, and a solution of compound in DMSO. The reaction was started with JAK enzyme and the plates incubated for 60 minutes at 30° C. The plates were then washed with PBST, […] HRP-Conjugated 4G10 antibody was added, and the plate incubated for 90 minutes at 30° C. The plate was again washed with PBST, […] TMB solution is added, and the plates were incubated for another 30 minutes at 30° C. Sulfuric acid ([…] of 1M) was added to stop the reaction and the plate is read at 450 nm to obtain the optical densities for analysis to determine IC50 values.

[3] = target: T2, c-KIT (Homo sapiens, UniProt P10721); test: Inhibition of c-KIT, radiometric filter-binding assay; conditions: 700 μM ATP, 0.5 mg/mL pE4Y, room temperature
T2 construct: 0.02% BSA and 25 nM c-KIT
T2 sequence (P10721 26-976): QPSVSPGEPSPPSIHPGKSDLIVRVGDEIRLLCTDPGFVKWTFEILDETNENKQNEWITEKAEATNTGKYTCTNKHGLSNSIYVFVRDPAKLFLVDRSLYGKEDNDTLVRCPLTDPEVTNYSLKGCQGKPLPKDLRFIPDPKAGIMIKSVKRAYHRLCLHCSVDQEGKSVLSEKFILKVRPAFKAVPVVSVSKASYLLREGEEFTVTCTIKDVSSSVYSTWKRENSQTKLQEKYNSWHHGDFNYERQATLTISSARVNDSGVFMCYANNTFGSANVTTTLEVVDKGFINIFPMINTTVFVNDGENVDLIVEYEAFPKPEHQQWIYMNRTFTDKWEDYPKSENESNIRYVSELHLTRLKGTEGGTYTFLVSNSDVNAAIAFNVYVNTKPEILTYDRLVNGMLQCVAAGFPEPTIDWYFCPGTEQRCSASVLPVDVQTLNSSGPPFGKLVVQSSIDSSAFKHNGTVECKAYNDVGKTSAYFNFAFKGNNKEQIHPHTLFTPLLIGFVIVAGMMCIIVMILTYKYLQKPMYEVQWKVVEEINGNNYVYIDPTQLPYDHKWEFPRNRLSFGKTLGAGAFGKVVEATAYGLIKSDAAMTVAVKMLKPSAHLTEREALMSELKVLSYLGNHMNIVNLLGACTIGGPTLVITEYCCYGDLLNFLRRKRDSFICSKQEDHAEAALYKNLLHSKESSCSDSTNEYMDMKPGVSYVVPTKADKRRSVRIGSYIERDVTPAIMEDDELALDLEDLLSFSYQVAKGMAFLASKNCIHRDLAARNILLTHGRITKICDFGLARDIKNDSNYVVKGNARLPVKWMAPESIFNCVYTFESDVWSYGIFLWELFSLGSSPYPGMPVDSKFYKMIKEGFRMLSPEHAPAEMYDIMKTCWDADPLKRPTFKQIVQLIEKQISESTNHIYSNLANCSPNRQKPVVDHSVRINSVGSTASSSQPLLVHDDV
Procedure: (§1) Compounds are screened for their ability to inhibit c-KIT activity using a radiometric filter-binding assay. This assay monitors the ^33P incorporation into a substrate poly(Glu, Tyr) 4:1 (pE4Y). Reactions are carried out in a solution containing 100 mM HEPES (pH 7.5), 10 mM MgCl2, 25 mM NaCl, 1 mM DTT, 0.01% BSA and 2.5% DMSO. Final substrate concentrations in the assay were 700 μM ATP and 0.5 mg/mL pE4Y (both from Sigma Chemicals, St Louis, Mo.). The final concentration of compounds is generally between 0.01 and 5 μM. Typically, a 12-point titration is conducted by preparing serial dilutions from 10 mM DMSO stock of test compound. Reactions were carried out at room temperature.
Two assay solutions are prepared. Solution 1 contains 100 mM HEPES (pH 7.5), 10 mM MgCl2, 25 mM NaCl, 1 mg/ml pE4Y and 1.4 mM ATP(containing 0.5 μCi of [γ-^33P]ATP for each reaction). Solution 2 contains 100 mM HEPES (pH 7.5), 10 mM MgCl2, 25 mM NaCl, 2 mM DTT, 0.02% BSA and 25 nM c-KIT. The assay is run on a 96 well plate by mixing 33 μL of Solution1 and 1.65 μL of the test compounds. The reaction is initiated with 33 μL of Solution2. After incubation for 20 minutes at room temperature, the reaction was stopped with 50 μL of 10% TCA containing 0.2 mM of ATP. All of the reaction volume is then transferred to a filter plate and washed with 5% TCA by a Harvester9600 from TOMTEC (Hamden, Conn.). The amount of ^33P incorporation into pE4y is analyzed by a Packard TopCount Microplate Scintillation Counter (Meriden, Conn.). The data is fitted using Prism software to get an IC50 or Ki.

[4] = target: T3, FLT-3 (Homo sapiens, UniProt P36888); test: Inhibition of FLT-3, radiometric filter-binding assay; conditions: 90 μM ATP, 0.5 mg/mL pE4Y, room temperature
T3 construct: 0.02% BSA and 3 nM FLT-3
T3 sequence (P36888 27-993): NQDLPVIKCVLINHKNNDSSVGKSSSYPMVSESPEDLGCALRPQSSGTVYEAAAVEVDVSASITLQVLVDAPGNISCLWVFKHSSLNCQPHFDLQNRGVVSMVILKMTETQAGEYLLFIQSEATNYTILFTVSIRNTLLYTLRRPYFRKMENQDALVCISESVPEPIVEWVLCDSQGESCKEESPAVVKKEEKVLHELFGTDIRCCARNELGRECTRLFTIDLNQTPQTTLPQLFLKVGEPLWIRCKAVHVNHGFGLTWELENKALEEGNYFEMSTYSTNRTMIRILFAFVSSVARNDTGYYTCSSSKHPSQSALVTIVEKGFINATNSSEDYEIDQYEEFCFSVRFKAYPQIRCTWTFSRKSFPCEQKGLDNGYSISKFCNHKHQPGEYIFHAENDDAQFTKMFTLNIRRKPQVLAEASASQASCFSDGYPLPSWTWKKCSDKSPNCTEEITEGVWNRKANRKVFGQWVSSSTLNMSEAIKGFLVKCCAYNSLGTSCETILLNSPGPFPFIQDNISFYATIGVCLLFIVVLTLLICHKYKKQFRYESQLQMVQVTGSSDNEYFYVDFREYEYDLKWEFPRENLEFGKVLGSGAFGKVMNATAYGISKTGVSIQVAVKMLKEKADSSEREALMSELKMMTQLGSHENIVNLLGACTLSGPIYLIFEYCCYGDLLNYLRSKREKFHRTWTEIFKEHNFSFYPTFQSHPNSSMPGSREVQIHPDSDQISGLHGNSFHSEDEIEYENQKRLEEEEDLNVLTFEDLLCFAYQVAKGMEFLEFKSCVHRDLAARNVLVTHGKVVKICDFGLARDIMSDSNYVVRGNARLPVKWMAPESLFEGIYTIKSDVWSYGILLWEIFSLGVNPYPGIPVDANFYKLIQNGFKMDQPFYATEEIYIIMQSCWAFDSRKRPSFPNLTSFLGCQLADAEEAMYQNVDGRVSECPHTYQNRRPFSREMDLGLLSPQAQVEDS
Procedure: as §1, with “Compounds were” for “Compounds are”, “inhibit FLT-3” for “inhibit c-KIT”, “Reactions were” for “Reactions are”, “were 90” for “were 700”, “titration was” for “titration is”
Two assay solutions were prepared. Solution 1 contains 100 mM HEPES (pH 7.5), 10 mM MgCl2, 25 mM NaCl, 1 mg/ml pE4Y and 180 μM ATP(containing 0.3 μCi of [γ-^33P]ATP for each reaction). Solution 2 contains 100 mM HEPES (pH 7.5), 10 mM MgCl2, 25 mM NaCl, 2 mM DTT, 0.02% BSA and 3 nM FLT-3. The assay was run on a 96 well plate by mixing 50 μL each of Solution 1 and […] of the test compounds. The reaction was initiated with Solution2. After incubation for 20 minutes at room temperature, the reaction was stopped with 50 μL of 20% TCA containing 0.4 mM of ATP. All of the reaction volume was then transferred to a filter plate and washed with 5% TCA by a Harvester9600 from TOMTEC (Hamden, Conn.). The amount of ^33P incorporation into pE4y was analyzed by a Packard TopCount Microplate Scintillation Counter (Meriden, Conn.). The data was fitted using Prism software to get an IC50 or Ki.

c-Met, sequence (P08581 25-1390): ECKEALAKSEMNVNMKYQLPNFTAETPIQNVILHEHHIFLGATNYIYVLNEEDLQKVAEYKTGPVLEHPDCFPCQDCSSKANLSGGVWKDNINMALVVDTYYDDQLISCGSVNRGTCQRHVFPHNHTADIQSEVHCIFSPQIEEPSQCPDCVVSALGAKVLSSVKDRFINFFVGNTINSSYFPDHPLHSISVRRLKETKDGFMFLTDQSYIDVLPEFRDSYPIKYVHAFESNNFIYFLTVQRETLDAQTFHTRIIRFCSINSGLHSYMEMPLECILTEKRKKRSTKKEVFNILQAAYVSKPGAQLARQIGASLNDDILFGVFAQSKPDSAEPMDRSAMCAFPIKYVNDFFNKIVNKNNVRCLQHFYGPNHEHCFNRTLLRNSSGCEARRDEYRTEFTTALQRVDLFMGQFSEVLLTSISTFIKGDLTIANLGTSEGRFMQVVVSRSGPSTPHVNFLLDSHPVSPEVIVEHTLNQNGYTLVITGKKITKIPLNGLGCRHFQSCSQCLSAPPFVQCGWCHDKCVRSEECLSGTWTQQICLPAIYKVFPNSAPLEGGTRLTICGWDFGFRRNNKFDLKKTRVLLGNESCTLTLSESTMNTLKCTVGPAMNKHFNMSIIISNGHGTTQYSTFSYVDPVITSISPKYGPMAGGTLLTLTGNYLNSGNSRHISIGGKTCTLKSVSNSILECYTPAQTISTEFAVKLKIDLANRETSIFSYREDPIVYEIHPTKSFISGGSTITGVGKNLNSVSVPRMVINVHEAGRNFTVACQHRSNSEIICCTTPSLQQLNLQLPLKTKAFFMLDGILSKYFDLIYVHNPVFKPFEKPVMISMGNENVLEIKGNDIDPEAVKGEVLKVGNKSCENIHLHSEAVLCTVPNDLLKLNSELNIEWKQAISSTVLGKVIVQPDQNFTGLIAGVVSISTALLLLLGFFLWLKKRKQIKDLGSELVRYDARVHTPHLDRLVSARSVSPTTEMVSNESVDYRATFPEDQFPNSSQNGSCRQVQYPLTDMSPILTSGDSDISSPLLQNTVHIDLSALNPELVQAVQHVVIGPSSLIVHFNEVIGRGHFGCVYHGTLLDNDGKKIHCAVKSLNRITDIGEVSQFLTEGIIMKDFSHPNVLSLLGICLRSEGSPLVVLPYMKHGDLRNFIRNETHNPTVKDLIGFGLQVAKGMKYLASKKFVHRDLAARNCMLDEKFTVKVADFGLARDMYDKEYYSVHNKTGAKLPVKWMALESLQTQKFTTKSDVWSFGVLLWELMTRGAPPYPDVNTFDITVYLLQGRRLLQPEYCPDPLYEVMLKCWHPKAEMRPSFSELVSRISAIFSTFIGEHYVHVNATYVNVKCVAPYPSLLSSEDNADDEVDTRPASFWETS

Row | Compound | Ki [1] [µM] | Ki [2] [µM] | Ki [3] [µM] | Ki [4] [µM]
1 | Fc1cccc(-n2cnnc2-c2c[nH]c3ncc(-c4ccc(N5CCOCC5)nc4)cc23)c1F [Compound 121, 3-[4-(2,3-Difluoro-phenyl)-4H-[1,2,4]triazol-3-yl]-5-(6-morpholin-4-yl-pyridin-3-yl)-1H-pyrrolo[2,3-b]pyridine] | < 0.2 | 1 to 12.5 | 0.2 to 1 | 
2 | OCC1CCN(c2ccc(-c3cnc4[nH]cc(-c5nncn5-c5cccc(F)c5F)c4c3)cn2)CC1 [Compound 120, (5′-{3-[4-(2,3-Difluoro-phenyl)-4H-[1,2,4]triazol-3-yl]-1H-pyrrolo[2,3-b]pyridin-5-yl}-3,4,5,6-tetrahydro-2H-[1,2′]bi-pyridinyl-4-yl)-methanol] | < 0.2 | 1 to 12.5 | 0.2 to 1 | 
3 | CN(C)Cc1cnc2[nH]cc(-c3oncc3-c3cccc(F)c3F)c2c1 [Compound 54, {3-[4-(2,3-Difluoro-phenyl)-isoxazol-5-yl]-1H-pyrrolo[2,3-b]pyridin-5-ylmethyl}-dimethyl-amine] | 1 to 12.5 |  |  | 1 to 12.5

Now from value to compound:

Row | Ki [1] [µM] | Ki [2] [µM] | Ki [3] [µM] | Ki [4] [µM] | Compound
4 | < 0.2 | 0.2 to 1 | < 0.2 |  | CN(C)c1ccc(-c2cnc3[nH]cc(-c4nncn4-c4cccc(F)c4F)c3c2)cc1N [Compound 130, 4-{3-[4-(2,3-Difluoro-phenyl)-4H-[1,2,4]triazol-3-yl]-1H-pyrrolo[2,3-b]pyridin-5-yl}-N^1,N^1-dimethyl-benzene-1,2-diamine]
5 | < 0.2 | 0.2 to 1 | 0.2 to 1 |  | Fc1cccc(-n2cnnc2-c2c[nH]c3ncc(-c4ccc(NCC5CCCO5)nc4)cc23)c1F (centres unmarked) [Compound 124, (5-{3-[4-(2,3-Difluoro-phenyl)-4H-[1,2,4]triazol-3-yl]-1H-pyrrolo[2,3-b]pyridin-5-yl}-pyridin-2-yl)-(tetrahydro-furan-2-ylmethyl)-amine]
6 | < 0.2 | 1 to 12.5 | < 0.2 |  | CN(C)c1ccc(-c2cnc3[nH]cc(-c4nncn4-c4cccc(F)c4F)c3c2)cc1[N+](=O)[O-] [Compound 131, (4-{3-[4-(2,3-Difluoro-phenyl)-4H-[1,2,4]triazol-3-yl]-1H-pyrrolo[2,3-b]pyridin-5-yl}-2-nitro-phenyl)-dimethyl-amine]
